Like-named read-outs stand apart in the source and are kept apart here. Marks after values point to notes of the source that are not given here.
Experiments:
[1] = test system: relapsed and refractory hematologic malignancies; details: cited from earlier work
[2] = Phase 1/1b clinical trial, safety; details: for treatment discontinuation: Death: CLL, N = 20, death due to SARS-CoV-2 infection
[3] = in vivo; cited from earlier work
[4] = comparison of atrial fibrillation adverse events between BTK inhibitors; format: in vivo, human; details: N=106
[5] = Phase 1/1b clinical trial, pharmacokinetics; format: in vivo, human; details: patients
BTK [6] = target: T1, BTK (Homo sapiens, UniProt Q06187); details: read-out: kinase inhibition IC50 against BTK; cited from earlier work
T1 sequence (Q06187 whole entry): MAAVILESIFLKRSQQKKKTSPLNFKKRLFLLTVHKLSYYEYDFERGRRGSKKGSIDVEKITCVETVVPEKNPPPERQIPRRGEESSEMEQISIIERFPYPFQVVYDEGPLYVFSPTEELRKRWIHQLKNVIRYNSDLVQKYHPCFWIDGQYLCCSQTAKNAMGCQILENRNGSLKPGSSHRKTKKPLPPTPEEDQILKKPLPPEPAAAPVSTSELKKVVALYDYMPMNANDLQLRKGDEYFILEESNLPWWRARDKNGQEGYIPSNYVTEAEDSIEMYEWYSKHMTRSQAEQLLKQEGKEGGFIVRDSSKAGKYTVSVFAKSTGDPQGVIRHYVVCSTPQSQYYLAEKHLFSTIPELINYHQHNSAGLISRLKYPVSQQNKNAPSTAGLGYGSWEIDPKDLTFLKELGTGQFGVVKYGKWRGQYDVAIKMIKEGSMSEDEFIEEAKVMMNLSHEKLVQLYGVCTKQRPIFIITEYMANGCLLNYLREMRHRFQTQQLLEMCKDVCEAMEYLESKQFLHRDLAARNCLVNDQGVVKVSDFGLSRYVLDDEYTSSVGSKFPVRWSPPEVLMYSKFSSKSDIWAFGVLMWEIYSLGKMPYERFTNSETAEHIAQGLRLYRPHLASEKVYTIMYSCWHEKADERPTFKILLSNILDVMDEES

[7] = human, in vivo
EGFR = EGFR (Homo sapiens, UniProt P00533); details: cited from earlier work
Sequence of EGFR (P00533 25-1210, species assumed): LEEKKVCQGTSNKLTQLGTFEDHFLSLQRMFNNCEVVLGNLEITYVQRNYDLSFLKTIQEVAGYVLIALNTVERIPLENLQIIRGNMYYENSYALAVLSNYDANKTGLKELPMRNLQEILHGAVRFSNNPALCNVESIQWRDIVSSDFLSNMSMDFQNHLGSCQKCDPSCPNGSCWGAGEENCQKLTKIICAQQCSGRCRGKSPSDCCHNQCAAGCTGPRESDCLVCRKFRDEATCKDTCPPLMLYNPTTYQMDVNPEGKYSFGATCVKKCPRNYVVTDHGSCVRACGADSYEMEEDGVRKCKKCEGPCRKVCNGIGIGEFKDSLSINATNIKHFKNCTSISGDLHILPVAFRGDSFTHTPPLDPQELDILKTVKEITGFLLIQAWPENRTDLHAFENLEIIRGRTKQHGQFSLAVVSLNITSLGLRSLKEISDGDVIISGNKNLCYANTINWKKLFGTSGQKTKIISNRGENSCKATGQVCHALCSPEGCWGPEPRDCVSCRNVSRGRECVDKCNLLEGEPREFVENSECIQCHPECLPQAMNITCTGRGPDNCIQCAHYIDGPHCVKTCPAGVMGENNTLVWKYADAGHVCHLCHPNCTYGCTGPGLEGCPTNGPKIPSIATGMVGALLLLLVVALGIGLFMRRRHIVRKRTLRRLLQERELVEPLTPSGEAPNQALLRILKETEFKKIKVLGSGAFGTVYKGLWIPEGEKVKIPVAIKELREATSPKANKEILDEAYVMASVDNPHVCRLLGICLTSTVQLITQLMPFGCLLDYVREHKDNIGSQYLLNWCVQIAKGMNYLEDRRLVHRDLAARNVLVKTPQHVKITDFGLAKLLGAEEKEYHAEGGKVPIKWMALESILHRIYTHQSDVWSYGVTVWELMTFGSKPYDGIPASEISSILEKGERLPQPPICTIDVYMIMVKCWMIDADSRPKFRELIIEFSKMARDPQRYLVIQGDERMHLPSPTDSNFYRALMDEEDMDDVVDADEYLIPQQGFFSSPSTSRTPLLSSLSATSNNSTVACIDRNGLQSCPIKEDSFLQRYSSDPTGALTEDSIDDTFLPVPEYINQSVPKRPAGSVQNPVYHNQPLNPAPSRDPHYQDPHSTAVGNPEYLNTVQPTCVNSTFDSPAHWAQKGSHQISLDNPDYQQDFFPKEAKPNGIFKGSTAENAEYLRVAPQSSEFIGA

[8] = test system: follicular lymphoma (FL) DOHH-2 cell line; details: read-out: IC50, inhibition of growth; cited from earlier work
[9] = test system: mantle cell lymphoma (MCL) Mino cell line; details: read-out: IC50, inhibition of growth; cited from earlier work
DLBCL SU-DHL-6 cell line = details: read-out: IC50, inhibition of growth; cited from earlier work
[10] = test system: IgM-activated BCR pathway; details: DOHH-2 cells; cited from earlier work
JEKO cells = details: cited from earlier work
BTK [11] = target: T2, BTK (Mus musculus, UniProt P35991); details: mice, single dose of TG-1701 at 12.5 mg/kg; cited from earlier work
T2 construct: from tissue; host or cells: mouse spleen
T2 sequence (P35991 whole entry): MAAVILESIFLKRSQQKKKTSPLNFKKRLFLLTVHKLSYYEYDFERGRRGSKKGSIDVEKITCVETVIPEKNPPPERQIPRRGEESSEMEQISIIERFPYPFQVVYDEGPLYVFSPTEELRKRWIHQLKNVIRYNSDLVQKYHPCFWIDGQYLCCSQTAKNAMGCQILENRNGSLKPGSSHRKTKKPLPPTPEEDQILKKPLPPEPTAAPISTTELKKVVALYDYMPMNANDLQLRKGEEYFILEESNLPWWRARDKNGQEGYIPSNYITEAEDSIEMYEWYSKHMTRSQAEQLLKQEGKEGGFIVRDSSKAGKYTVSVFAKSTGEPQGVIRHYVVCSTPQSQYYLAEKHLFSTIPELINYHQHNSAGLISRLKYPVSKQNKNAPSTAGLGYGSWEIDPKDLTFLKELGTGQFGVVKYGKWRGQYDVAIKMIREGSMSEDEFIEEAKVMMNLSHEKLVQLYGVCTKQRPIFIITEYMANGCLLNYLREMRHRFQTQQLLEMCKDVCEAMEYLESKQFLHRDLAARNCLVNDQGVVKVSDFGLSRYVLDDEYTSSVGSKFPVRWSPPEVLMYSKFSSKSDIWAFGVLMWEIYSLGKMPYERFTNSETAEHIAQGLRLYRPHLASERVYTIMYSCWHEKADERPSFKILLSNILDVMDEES

[12] = test system: SU-DHL-6 (GCB-DLBCL), Mino (MCL), and OCI-Ly10 (ABC-DLBCL) xenograft models; details: SU-DHL-6, Mino, OCI-Ly10 xenografts; cited from earlier work
B-NHL cell lines [13] = details: cited from earlier work
B-NHL cell lines [14] = details: cited from earlier work; remark: listed apart in the source
BTK [15] = target: T1, BTK; assay: Phase 1/1b clinical trial, pharmacodynamics (BTK occupancy); format: in vivo; design: endogenous in cells
B-cell malignancies = assay: Phase 1/1b clinical trial, efficacy (response)
Procedure: All patients were treated until disease progression, unacceptable toxicity, or investigator/patient decision to withdraw.
All patients were treated until disease progression, unacceptable toxicity, or investigator/patient decision to withdraw study consent.
Evaluable patients had at least one response assessment.

[16] = ibrutinib n=263, acalabrutinib n=266; cited from earlier work
CD20 antigen = target: T3, CD20 antigen (Homo sapiens, UniProt P11836); details: cited from earlier work
T3 sequence (P11836 1-297): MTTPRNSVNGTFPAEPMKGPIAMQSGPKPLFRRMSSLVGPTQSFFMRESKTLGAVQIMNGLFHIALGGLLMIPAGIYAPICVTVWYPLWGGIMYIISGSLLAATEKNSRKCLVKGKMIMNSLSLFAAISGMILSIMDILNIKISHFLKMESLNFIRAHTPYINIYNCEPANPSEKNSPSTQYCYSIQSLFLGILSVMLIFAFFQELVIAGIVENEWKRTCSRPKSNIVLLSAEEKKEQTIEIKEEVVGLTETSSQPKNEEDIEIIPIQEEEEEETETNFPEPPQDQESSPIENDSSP

[17] = patients with relapsed or refractory hematologic malignancies
[18] = monotherapy 200 mg, CLL cohort, N = 20
[19] = monotherapy 200 mg, MCL cohort, N = 18
[20] = monotherapy 200 mg, WM cohort, N = 19
[21] = monotherapy dose escalation 100-400 mg, N = 23

CC(C)Oc1ccc(-c2nn([C@@H](C)c3oc4ccc(F)cc4c(=O)c3-c3cccc(F)c3)c3ncnc(N)c23)cc1F [umbralisib, (S)-2-(1-(4-amino-3-(3-fluoro-4-isopropoxyphenyl)-1H-pyrazolo[3,4-d]pyrimidin-1-yl)ethyl)-6-fluoro-3-(3-fluorophenyl)-4H-chromen-4-one]
doses with signs of clinical activity ([1]; in vivo): ≥ 800 mg each day | hepatic toxicity [1, 17]: no reported hepatic toxicity | tolerability [1, 17]: well-tolerated | patients with dose reduction of umbralisib due to G3-4 ALT elevation ([2]; combination arm, dose escalation): 3 patients

CC[C@H](Nc1ncnc2[nH]cnc12)c1nc2cccc(F)c2c(=O)n1-c1ccccc1 [Idelalisib]
immune mediated colitis, grade 3 [3]: ≥ 5% | pneumonitis, grade 3 [3]: ≥ 4% | transaminitis, grade 3 [3]: ≥ 8%

CC#CC(=O)N1CC[C@@H](n2cc(-c3ccc(Oc4c(F)cccc4F)cc3)c3c(N)n[nH]c(=O)c32)C1 [TG-1701, (R)-4-amino-1-(1-(but-2-ynoyl)pyrrolidin-3-yl)-3-(4-(2,6-difluorophenoxy)phenyl)-1,6-dihydro-7H-pyrrolo[2,3-d]pyridazin-7-one]
% incidence of any grade Afib [4]: 3.8% | % incidence of atrial fibrillation (Afib), Grade 3 or greater [4]: 1.9% | kinetics, dose proportionality of exposure [5]: Linear kinetics | IC50 (BTK [6]): 3 nM | G≥3 neutropenia [7]: 8% | changes between pre- and on-treatment diastolic blood pressure nor QTc [7]: No significant changes | patients with dose reduction due to treatment-related adverse events [7]: Four | treatment discontinuations due to adverse events [7]: no treatment discontinuations due to adverse events | ventricular tachyarrhythmia [7]: No cases | IC50 (EGFR): 270 nM | IC50 [8]: 369 nM | IC50 [9]: 449 nM | IC50 (DLBCL SU-DHL-6 cell line): 313 nM | IgM-activated BCR pathway: phosphorylation of BTK, PLCy2, and ERK1/2 [10]: inhibited | CXCL12-dependent migration (JEKO cells): blocked | IgM-dependent CD69 expression (JEKO cells): blocked | adhesion of JEKO cells to VCAM-1 (JEKO cells): blocked | BTK occupancy in the spleen (BTK [11]): completely occupied | anti-tumor efficacy [12]: potent anti-tumor activity equivalent to or greater than ibrutinib | FcγR-driven ADCC and ADCP activity of anti-CD20 antibodies (e.g., ublituximab) (B-NHL cell lines [13]): does not impair | ADCC activity of ublituximab in the presence of the BTK inhibitor (B-NHL cell lines [13]; compared to monotherapy ADCC activity of ublituximab, across cell lines): not significantly different | ADCP activity of rituximab in the presence of the BTK inhibitor (B-NHL cell lines [14]): conserved to a greater extent | ADCP activity of ublituximab in combination with the BTK inhibitor (B-NHL cell lines [14]; increasing concentrations): conserved at all dose levels tested | BTK occupancy (BTK [15]; 100 mg QD): full BTK occupancy | saturation of the BTK (BTK [15]; all dose levels studied): ~100% | receptor occupancy at 100 mg (BTK [15]; human, 100 mg QD): ≥ 99% | treatment discontinuation: Death ([2]; dose-expansion 200 mg): 1^‡ N(%) | treatment discontinuation: Death ([2]; dose-expansion 300 mg): 2^‡ N(%) | hematologic variables in patients with anemia and thrombocytopenia at baseline (B-cell malignancies; CLL 200-mg and 300-mg cohorts): sustained improvement | lymphocytosis resolution to normal or less than 50% of baseline (B-cell malignancies; CLL monotherapy patients): 57.1% | ORR (B-cell malignancies; CLL patients evaluable for response, Example 2): 95.6% | median duration of response (B-cell malignancies; CLL patients, Example 2): has not been reached | treatment discontinuation: Progression by iwCLL criteria (B-cell malignancies; CLL, dose-escalation 100-400 mg, N = 6): 1 N(%) | complete responses (CR) confirmed (B-cell malignancies; TG-1701 monotherapy): No complete responses | ORR (B-cell malignancies; [18]): 95% | Stable disease (B-cell malignancies; [18]): 1 (5) N (%) | Partial response (B-cell malignancies; monotherapy 200 mg, CLL cohort, N = 20, includes PR and PR-L): 19 (95)^b N (%) | ORR (B-cell malignancies; [19]): 50% | Partial response (B-cell malignancies; [19]): 9 (50) N (%) | Progressive disease (B-cell malignancies; [19]): 3 (17) N (%) | Stable disease (B-cell malignancies; [19]): 6 (33) N (%) | Minor response (B-cell malignancies; [20]): 6 (32) N (%) | ORR (B-cell malignancies; [20]): 95% | Partial response (B-cell malignancies; [20]): 12 (63) N (%) | Progressive disease (B-cell malignancies; [20]): 1 (5) N (%) | Minor response (B-cell malignancies; [21]): 1 (4) N (%) | ORR (B-cell malignancies; [21]): 52% | Partial response (B-cell malignancies; [21]): 11 (48) N (%) | Progressive disease (B-cell malignancies; [21]): 3 (13) N (%) | Stable disease (B-cell malignancies; [21]): 8 (35) N (%)

CC#CC(=O)N1CCC[C@H]1c1nc(-c2ccc(C(=O)Nc3ccccn3)cc2)c2c(N)nccn12 [acalabrutinib]
% incidence of any grade Afib [16]: 9% | % incidence of atrial fibrillation (Afib), Grade 3 or greater [16]: 4.5%

B1: Ublituximab: chimeric monoclonal antibody targeting a unique epitope on the CD20 antigen, glycoengineered for enhanced affinity for Fcγ RIIIa receptors (antibody, V domains shown)
VH: QAYLQQSGAELVRPGASVKMSCKASGYTFTSYNMHWVKQTPRQGLEWIGGIYPGNGDTSYNQKFKGKATLTVGKSSSTAYMQLSSLTSEDSAVYFCARYDYNYAMDYWGQGTSVTVSS
VL: QIVLSQSPAILSASPGEKVTMTCRASSSVSYMHWYQQKPGSSPKPWIYATSNLASGVPARFSGSGSGTSYSFTISRVEAEDAATYYCQQWTFNPPTFGGGTRLEIK
modifications: Ublituximab Variable heavy chain; Ublituximab Variable light chain
ADCC activity compared with rituximab and ofatumab (CD20 antigen): greater

Reference: patent US20220143026A1, “TRIPLE COMBINATION TO TREAT B-CELL MALIGNANCIES” (TG Therapeutics, Inc., priority 2020, published 2022)
